Measured values published in US11584759B2, “Macrocyclic kinase inhibitor” (HITGEN INC., priority 2018, dated 2023).

Assays:
[1] = test system: Ba/F3 ETV6-NTRK3-G623R cell line; assay: Cell experiment, CellTiter-Glo viability, Ba/F3 ETV6-NTRK3-G623R; assay type: cell-based; settings: Mus musculus, BaF3, 72 hours, CTG
Procedure: (§1) Cell culture and seeding: (1) cells in logarithmic growth phase were harvested and counted using a […]. The cell viability was detected by trypan blue exclusion method to ensure that the cell viability was above 90%. (2) The cell concentration was adjusted; and 90 μl of cell suspension was added to the 96-well plate.
(§2) 10 μl of drug solution was added to each well in a 96-well plate inoculated with cells, triplicate per concentration.
(§3) End-point for reading: (1) The CTG reagent was thawed and the cell plate was equilibrated to room temperature for 30 minutes. (2) Equal volume of CTG solution was added to each well. (3) The plated was shaken on an orbital shaker for 5 minutes to lyse the cells. (4) The cell plate was placed at room temperature for 20 minutes to stabilize the cold light signal. (5) The cold light value was read.
(§4) GraphPad Prism 7.0 software was used to analyze the data, and nonlinear S-curve regression was fitted the data to get the dose-effect curve, and the IC50 value was calculated therefrom. Cell survival (%)=(Lumtest drug−Lumculture control)/(Lumcell control−Lumculture control)×100%.

TRKA Protein (wild type) = target: T1, TRKA Protein (wild type) (Homo sapiens, UniProt P04629); assay: Detection of TRK inhibitory activity (ADP-Glo kinase assay), TRKA wild type; assay type: biochemical; settings: 35 min at room temperature
T1 construct: purchased abcam ab60887
Procedure: (§5) An enzyme reaction buffer was prepared containing 25 mM MOPS, 5 mM MgCl2, 500 μM DTT and 0.005% Triton, and then adjusted to pH 7.5.
(§6) The test compound was diluted with DMSO to 200 times of the desired final concentration, and mixed evenly, then 3 μL of the solution was pipetted to 117 μL of enzyme reaction buffer and mixed thoroughly. Then, 3 μL of the enzyme reaction buffer containing the test compound was pipetted to a 96-well PCR plate. The positive and negative control wells were filled with 3 μL of enzyme reaction buffer containing 2.5% DMSO, respectively. TRK protein was diluted to 0.4 ng/μL with the enzyme reaction buffer, and 6 μL of diluted TRK protein was added to each well except for the well for the blank control group, in which 6 μL of the enzyme reaction buffer was added. The reaction plate was centrifuged at 1000 rpm/min for 1 minute, and the compound and TRK were pre-incubated at room temperature for 10 minutes. A mixed solution with ATP at a concentration of 160 μM and substrate at a concentration of 1 μM was prepared with the enzyme reaction buffer, and 6 μL of the mixed solution was added to each reaction well. The reaction plate was centrifuged at 1000 rpm/min for 1 minute, and incubated at room temperature for 35 minutes. After the enzyme reaction was completed, 15 μL of ADP-Glo was added to each reaction well. The reaction plate was centrifuged at 1000 rpm/min for 1 minute, and incubated at room temperature for 40 minutes. Then 15 μL of the reaction solution from each well was transferred to a 384-well plate, and then 15 μL of detection substrate was added to each corresponding well of the 384-well plate. The 384-well plate was centrifuged at 1000 rpm/min for 1 minute, and incubated at room temperature for 40 minutes. After the reaction, a microplate reader was used to read the cold luminescence signal value in the 384-well plate.
(§7) The residual viability percentage of each concentration was calculated with the following formula: Residual viability (%)=100*(Lumincompond−Luminblank control)/(Luminpostive control−Luminblank control)
(§8) Then, GraphPad 5.0 was fitted to the effect curve to calculate the IC50 value.

[2] = test system: BA/F3 ETV6-NTRK3 G623R cells; assay: Drug Efficacy Test 3: tumor growth in SCID mice; assay type: in vivo, mouse; settings: subcutaneous BA/F3 ETV6-NTRK3 G623R tumors, start at about 300 mm^3, FIG. 3
Procedure: BA/F3 ETV6-NTRK3 G623R cells are polyclonal stable transfected cell lines constructed based on TRKA mutation by our laboratory. SCID mice, female, 6-8 weeks old, weighing 18-22 grams, were purchased from Chengdu Dashuo Experimental Animal Co., Ltd.
(§9) BA/F3 ETV6-NTRK3 G623R cells in logarithmic growth phase were collected, counted and adjusted to a suitable cell density. 0.1 mL cell suspension (2×10^6 cells) was inoculated subcutaneously into the right back of each mouse. When the average tumor volume reached about 300 mm^3, mice were randomly divided into groups (m=5) for administrating the compound of Example 1 in solvent PEG400:HPBCD (20%, W/V) (3:1).
(§10) At the end of the experiment, all surviving experimental animals were sacrificed.
(§11) Tumor volume was calculated using formula: V=0.5 (a×b^2), wherein a and b represent the long and short diameters of the tumor, respectively.
(§12) Graph Pad Prism 6.0 was used for graph analysis.

NIH-3T3ΔTRKA G595R cells = assay: Drug Efficacy Test 1: tumor growth in Balb/c Nude mice; assay type: in vivo, mouse; settings: subcutaneous NIH-3T3ΔTRKA G595R tumors, start at about 100 mm^3, FIG. 1
Procedure: NIH-3T3 ATRKA G595R cells are polyclonal stable transfected cell lines constructed based on TRKA mutation by our laboratory. Balb/c Nude mice, female, 6-8 weeks old, weighing 18-22 grams, were purchased from Chengdu Dashuo Experimental Animal Co., Ltd.
NIH-3T3 ATRKA G595R cells in the logarithmic growth phase were collected, counted and adjusted to a suitable cell density. 0.1 mL cell suspension (2×10^6 cells) was inoculated subcutaneously into the right back of each mouse. When the average tumor volume reached about 100 mm^3, mice were randomly divided into groups (m=6) for administrating the compound of Example 1 in solvent PEG400:HPBCD (20%, W/V) (3:1).
as §10, §11, §12

[3] = test system: BA/F3 ETV6-NTRK3 G623R cells; assay: Drug Efficacy Test 2: tumor growth in Balb/c Nude mice; assay type: in vivo, mouse; settings: subcutaneous BA/F3 ETV6-NTRK3 G623R tumors, start at about 100 mm^3, FIG. 2
Procedure: BA/F3 ETV6-NTRK3 G623R cells are polyclonal stable transfected cell lines constructed based on TRKA mutation by our laboratory. Balb/c Nude mice, female, 6-8 weeks old, weighing 18-22 grams, were purchased from Chengdu Dashuo Experimental Animal Co., Ltd.
as §9, with “100” for “300”
as §10, §11
GraphPadPrism6.0 was used for graph analysis.

[4] = test system: Ba/F3 LMNA-NTRK1-F589L cell line; assay: Cell experiment, CellTiter-Glo viability, Ba/F3 LMNA-NTRK1-F589L; assay type: cell-based; settings: Mus musculus, BaF3, 72 hours, CTG
Procedure: as §1, §2, §3, §4

[5] = test system: Ba/F3 LMNA-NTRK1-G595R cell line; assay: Cell experiment, CellTiter-Glo viability, Ba/F3 LMNA-NTRK1-G595R; assay type: cell-based; settings: Mus musculus, BaF3, 72 hours, CTG
Procedure: as §1, §2, §3, §4

TRKA (G667C) = TRKA (G667C) (Homo sapiens, UniProt P04629, G667C); assay: Detection of TRK inhibitory activity (ADP-Glo kinase assay), TRKA (G667C); assay type: biochemical
Procedure: as §5, §6, §7, §8

T1 sequence (P04629 33-796): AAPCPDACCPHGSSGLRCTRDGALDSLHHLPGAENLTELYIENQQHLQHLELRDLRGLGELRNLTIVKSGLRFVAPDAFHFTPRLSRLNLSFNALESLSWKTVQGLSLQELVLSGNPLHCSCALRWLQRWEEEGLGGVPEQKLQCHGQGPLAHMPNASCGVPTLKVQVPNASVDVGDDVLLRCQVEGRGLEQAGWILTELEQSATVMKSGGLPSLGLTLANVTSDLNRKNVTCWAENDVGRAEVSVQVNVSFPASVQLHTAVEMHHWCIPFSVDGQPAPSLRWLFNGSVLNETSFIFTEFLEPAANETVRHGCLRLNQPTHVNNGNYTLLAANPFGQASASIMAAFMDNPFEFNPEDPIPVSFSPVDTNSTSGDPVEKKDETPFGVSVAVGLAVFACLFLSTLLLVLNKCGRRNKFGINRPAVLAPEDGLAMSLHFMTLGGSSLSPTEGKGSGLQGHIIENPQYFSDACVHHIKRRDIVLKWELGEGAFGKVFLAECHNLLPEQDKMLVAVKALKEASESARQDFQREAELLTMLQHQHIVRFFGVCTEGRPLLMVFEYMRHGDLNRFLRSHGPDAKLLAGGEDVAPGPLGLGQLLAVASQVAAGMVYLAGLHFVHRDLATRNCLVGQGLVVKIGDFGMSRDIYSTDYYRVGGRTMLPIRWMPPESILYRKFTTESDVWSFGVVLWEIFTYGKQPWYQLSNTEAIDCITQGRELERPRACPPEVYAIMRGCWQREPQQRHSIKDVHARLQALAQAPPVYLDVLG
Chain of TRKA (G667C) (P04629 33-796 G667C): as the sequence (P04629 33-796) above, with G635C counted along it

IC50 [1] [nM]	IC90 [1] [nM]	IC50 (TRKA Protein (wild type)) [nM]	IC50 [4] [nM]	IC90 [4] [nM]	IC50 [5] [nM]	IC90 [5] [nM]	IC50 (TRKA (G667C)) [nM]	SMILES	Inhibition of tumor growth (tumor volume) [2]	Inhibition of tumor growth (tumor volume) (NIH-3T3ΔTRKA G595R cells)	Inhibition of tumor growth (tumor volume) [3]
17.3	42.3	< 50	3.8	17.1	2.5	83.2	< 50	C[C@@H]1CCOc2ccc(F)cc2[C@H]2CCCN2c2ccc3ncc(C#N)c(c3n2)N1 [Example 1, (6R,16R)-9-fluoro-16-methyl-3-oxa-2,17,21,25-tetraazapentacyclo [16.6.2.0^2,^6.0^7,^12.0^22,^26]hexacosane-1(25),7,9,11,18(26),19,21,23-octane-19-nitrile]	inhibits the growth	inhibits the growth	inhibits the growth
466	843	–	< 1	1.4	1730	6120	–	CN1CCN(c2ccc(C(=O)Nc3n[nH]c4ccc(Cc5cc(F)cc(F)c5)cc34)c(NC3CCOCC3)c2)CC1 [RXDX-101, reference compound]	–	–	–
